Common to all, as to assay: inhibition of tumour cell growth, NCI panel, 48 h
Assay [1] has as its system HT29 colon.
Assay [2] deals with OVCAR-8 ovarian.
In assay [3] the test system is K-562 leukemia.
Assay [4] relates to T-47D breast.
Assay [5] concerns RPMI-8226 leukemia.
Assay [6] has as its system SR leukemia.
Assay [7] concerns HOP-92 NSCLC.
The subject of assay [8] is DU-145 prostate.
The subject of assay [9] is MDA-MB-231 breast.
Assay [10] concerns OVCAR-5 ovarian.
Assay [11] relates to MCF7 breast.
The test system of assay [12] is NCI-H23 lung.
The test system of assay [13] is LOX IMVI melanoma.
In assay [14] the test system is ACHN renal.
Assay [15] deals with NCI-H522 lung.
In assay [16] the test system is M14 melanoma.
Assay [17] concerns PC-3 prostate.
In assay [18] the test system is MOLT-4 leukemia.
Assay [19] relates to A549 NSCLC.

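Dose response: 5 concentrations. Exposure: 48 h. Format: 96-well plates. Endpoint: linear interpolation; highest concentration if not reached. TGI: total growth inhibition.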 Where only a bound is given, the exact number is not on record here.

We go through 15 molecules from PubChem BioAssay (NCI).

On to `Cn1c(=O)c2nc3c(=O)n(C)c(=O)n(CC(N)=O)c3nc2n(C)c1=O`, for which the TGI in [1], in assay [2], in assay [3], in assay [4], in assay [5] and in [6] was greater than 100 µM in each case. Also, the TGI in assay [7], in assay [8], in assay [9], in [10], in assay [11] and in assay [12] was greater than 100 µM each time. For the same molecule, the TGI in assay [13], in assay [14], in assay [15], in assay [16] and in [17] was greater than 100 µM each time.

As for `CC(=O)NCCCCN(CCCNC(C)=O)C(=O)CNS(=O)(=O)c1cccc2c(N(C)C)cccc12`, the TGI in assay [1], in assay [18], in assay [19], in assay [3], in assay [4] and in assay [5] was greater than 100 µM throughout. In addition, the TGI in assay [6], in assay [7], in assay [8], in [9], in [10] and in assay [11] was greater than 100 µM throughout. Moreover, the TGI in assay [12], in assay [13], in assay [14], in assay [15], in [16] and in assay [17] was greater than 100 µM throughout.

On to `O=C1OC(C2Cc3ccc4c(c3C2=O)CCC4)c2ccccc21` (stereo not drawn), for which the TGI in assay [1], in assay [18], in assay [19], in assay [2], in [3] and in assay [4] was greater than 100 µM each time. Moreover, the TGI in assay [5] was 85.1 µM; in assay [6], greater than 100 µM; in [7] it was greater than 100 µM; in assay [8] it was greater than 100 µM; in assay [9], greater than 100 µM; in assay [10] it was greater than 100 µM. Also, the TGI in assay [11], in [12], in assay [13], in [14], in assay [15] and in [16] was greater than 100 µM each time. Also, the TGI in assay [17] was greater than 100 µM.

In the case of `CC(NCc1c(O)ccc2ccc(=O)oc12)C(=O)O` (stereo not drawn), the TGI in assay [1], in assay [18], in assay [19], in [2], in [3] and in assay [4] was greater than 100 µM throughout. Besides, the TGI in assay [5], in [6], in assay [7], in [8], in [9] and in assay [10] was greater than 100 µM each time. Moreover, the TGI in [11], in assay [12], in [13], in [14], in assay [15] and in [16] was greater than 100 µM each time. The molecule further displayed a TGI in assay [17] greater than 100 µM.

In the case of `N#CC(C#N)=C/C=C/c1c(Cl)cccc1Cl`, the TGI stood at 3.25 µM in assay [1]; 9.01 µM in assay [18]; 7.22 µM in assay [19]; 3.48 µM in assay [2]; 8.56 µM in assay [3]; 6.19 µM in assay [4]. Further, the TGI is 7.46 µM in [5]; greater than 10 µM in [6]; 4.8 µM in [7]; 3.2 µM in [8]; 3.52 µM in assay [9]; 7.04 µM in assay [11]. Moreover, the TGI was 2.87 µM in assay [12]; 3.36 µM in assay [13]; 3.19 µM in [14]; 3.06 µM in [15]; 3.06 µM in assay [16]; 3.68 µM in assay [17].

With `O=c1cc(NNCc2ccccc2)[nH]c(=O)[nH]1`, the TGI in assay [1] is greater than 100 µM; in assay [18], greater than 100 µM; in [19], greater than 100 µM; in [2] it was greater than 100 µM; in assay [3] it was greater than 100 µM; in assay [4] it was 67 µM. The TGI in [5], in assay [6], in assay [7], in assay [8], in [9] and in [10] was greater than 100 µM each time. The TGI in assay [11], in assay [12], in assay [13], in assay [14], in assay [16] and in assay [17] was greater than 100 µM in each case.

Regarding `CC1C2CC(CC2(C)O)C1(C)C` (stereo not drawn), the TGI in assay [1], in [18], in [19], in assay [2], in assay [3] and in assay [4] was greater than 100 µM throughout. In addition, the TGI in assay [6], in assay [7], in [8], in assay [9], in assay [10] and in assay [11] was greater than 100 µM each time. The TGI in [12], in assay [14], in assay [15], in assay [16] and in assay [17] was greater than 100 µM throughout.

In the case of `O=S1(=O)c2ccccc2C(Nc2ccccc2)N1c1ccccc1` (stereo not drawn), the TGI is greater than 100 µM in assay [1]; greater than 100 µM in assay [18]; greater than 100 µM in assay [19]; greater than 100 µM in assay [2]; greater than 100 µM in assay [3]; 80 µM in assay [4]. For the same molecule, the TGI in [5], in [6], in assay [7], in assay [8], in [9] and in assay [10] was greater than 100 µM each time. The TGI is greater than 100 µM in assay [11]; greater than 100 µM in assay [12]; greater than 100 µM in assay [13]; greater than 100 µM in assay [14]; 67.9 µM in assay [15]; greater than 100 µM in [17].

For `CCC/C(Cl)=N/OC(=O)Nc1cc(C(F)(F)F)ccc1OC`, the TGI in assay [1] amounted to 44.1 µM; in assay [18] it was 6.01 µM; in [19], 34.6 µM; in assay [2], 29.8 µM; in assay [4] it was 15.6 µM; in assay [5], 6.05 µM. For the same molecule, the TGI stood at 13.5 µM in [6]; 6.56 µM in assay [7]; 30 µM in assay [8]; 27 µM in assay [9]; 32.1 µM in assay [10]; 27.7 µM in assay [11]. Further, the TGI in [12] came out at 37.2 µM; in assay [13], 16.2 µM; in assay [14], 26.1 µM; in [15], 2.99 µM; in [16], 21.4 µM; in [17], 29.7 µM.

Consider `CC1(C)C2CCC1(C)C(OC(=O)/C=C/C(=O)OC1CC3CCC1(C)C3(C)C)C2` (stereo not drawn), for which the TGI in [1] is greater than 100 µM; in assay [18], 45.9 µM; in assay [19], greater than 100 µM; in [2] it was greater than 100 µM; in assay [3] it was greater than 100 µM; in assay [4] it was greater than 100 µM. Further, the TGI in assay [6] was 55.7 µM; in assay [7], greater than 100 µM; in [8], greater than 100 µM; in assay [9], greater than 100 µM; in assay [10], greater than 100 µM; in assay [11] it was 67.4 µM. For the same molecule, the TGI in assay [12] was greater than 100 µM; in assay [13] it was 49.9 µM; in assay [14], greater than 100 µM; in assay [15] it was greater than 100 µM; in assay [16], greater than 100 µM; in assay [17] it was greater than 100 µM.

For the molecule `CCOC(=O)Cc1nnc2n(-c3ccccc3)c(=O)c3ccccc3n12`, the TGI in [1], in [18], in [19], in assay [2], in assay [3] and in assay [4] was greater than 100 µM in each case. The TGI in [6], in assay [7], in assay [8], in [9], in assay [10] and in [11] was greater than 100 µM in each case. The TGI in assay [12], in assay [13], in assay [14], in assay [15], in assay [16] and in [17] was greater than 100 µM each time.

In the case of `C=C(C)[C@@H]1CCC2=C[C@H](C/C(C)=C\C3=CC(C)=C(O3)[C@H]1O)OC2=O`, the TGI in assay [18], in assay [19], in assay [2], in [3], in [4] and in [5] was greater than 100 µM each time. In addition, the TGI in [6] is greater than 100 µM; in [7], greater than 100 µM; in [8], greater than 100 µM; in [9], 98.8 µM; in assay [10], greater than 100 µM; in assay [11] it was greater than 100 µM. Also, the TGI in [13], in assay [14], in [15], in assay [16] and in assay [17] was greater than 100 µM in each case.

As for `CC(=O)OCC1OC(c2c(OC(C)=O)cc(C)c3c(=O)cc(/C(C(C)=O)=C(\C)O)oc23)C(OC(C)=O)C(OC(C)=O)C1OC(C)=O` (stereo not drawn), the TGI in assay [1], in [18], in assay [19], in assay [2], in [3] and in assay [4] was greater than 100 µM each time. Besides, the TGI in [5], in assay [6], in assay [7], in [8], in [9] and in assay [10] was greater than 100 µM each time. Further, the TGI in assay [11], in [12], in assay [14], in [15], in [16] and in [17] was greater than 100 µM each time.

For `C/C=C(/C)C(=O)O[C@H]1[C@H]2[C@@H]([C@@H](OC(C)=O)[C@H](C)C(=O)[C@@]34C[C@@H](C)C(=O)[C@]3(/C=C(\C)[C@H]1OC(C)=O)O4)C2(C)C`, the TGI in [18] stood at 6.46 µM; in [2], 6.54 µM; in assay [3], 8.43 µM; in assay [4] it was 5.74 µM; in assay [5], 9.94 µM; in [6], 7.34 µM. Also, the TGI in [7] is 7.73 µM; in [8] it was greater than 20 µM; in assay [9] it was 9.32 µM; in assay [10], 7.77 µM; in assay [11] it was 5.98 µM; in assay [12] it was greater than 20 µM. Also, the TGI in assay [13] came out at 6.27 µM; in [14], 7.05 µM; in [15], 6.29 µM; in assay [16] it was 5.22 µM; in assay [17] it was 15.8 µM.

`C=CCC1(Sc2ccccn2)Sc2ccc3ccccc3c2-c2c(ccc3ccccc23)S1`: the TGI in [1], in assay [18], in assay [19], in assay [2], in [3] and in assay [4] was greater than 100 µM in each case. For the same molecule, the TGI in [6], in [7], in assay [8], in [9], in assay [10] and in [11] was greater than 100 µM in each case. Moreover, the TGI in assay [12], in assay [13], in assay [14], in assay [15], in assay [16] and in assay [17] was greater than 100 µM each time.
